Biological target: T1, hMrgpMRGPRX2 (Homo sapiens, UniProt Q96LB1)
T1 construct: expressed in transfected cells
T1 sequence (Q96LB1 1-330): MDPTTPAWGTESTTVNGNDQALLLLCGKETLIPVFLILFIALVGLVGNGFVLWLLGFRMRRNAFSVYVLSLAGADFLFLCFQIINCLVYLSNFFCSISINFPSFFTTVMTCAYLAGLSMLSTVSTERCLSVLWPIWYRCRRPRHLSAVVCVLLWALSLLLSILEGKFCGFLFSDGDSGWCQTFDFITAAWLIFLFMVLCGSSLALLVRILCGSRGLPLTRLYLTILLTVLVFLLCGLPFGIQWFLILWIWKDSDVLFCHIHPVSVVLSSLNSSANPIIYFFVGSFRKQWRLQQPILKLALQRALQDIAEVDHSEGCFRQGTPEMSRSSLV
Test: FLIPR intracellular calcium mobilization, antagonist activity in recombinant hMrgpMRGPRX2 expressing cells
Format: cell-based
Details: read-out: Human MrgprX2 Antagonist pIC50 (converted)
Source text: Potent and selective hMrgpMRGPRX2 compounds have been generated from compounds identified during a high throughput screening (HTS) campaign and followed up with cycles of structure activity based medicinal chemistry efforts. These compounds were characterized in recombinant hMrgpMRGPRX2 expressing cells for their antagonist activity and the potency was confirmed in the human mast cell line LAD-2, where the target is endogenously expressed. The assays used to determine potencies are functional read-out looking at intracellular calcium mobilization using the FLIPR™ technology. In these FLIPR assays, we test the identified compounds using recombinant cellular systems expressing mouse MrgprB2, mouse MrgprA1, gerbil MrgpMRGPRX2 orthologue, Chinese hamster MrgpMRGPRX2 orthologue and cynomolgus monkey MrgpMRGPRX2 orthologue, respectively for orthologue activity.

| IC50 | SMILES |
| --- | --- |
| 8910 nM | CCN(C[C@@H](O)C(F)(F)F)C(=O)Nc1ccc(Oc2ccc(C#N)cc2)cn1 [Compound E115] |
| 1000 nM | COC(C)(C)C(=O)Nc1ccc(Oc2ccc(F)c(F)c2)cn1 [Compound E038] |
| 79.4 nM | CC(C)C(=O)Nc1ccc(Oc2cccc(F)c2F)cn1 [Compound E009] |
| 1580 nM | C[C@H](O)CN(C)C(=O)Nc1ccc(Oc2cccc(F)c2)cn1 [Compound E103] |
| 1580 nM | CCN(C[C@@H](O)C(F)(F)F)C(=O)Nc1cc(Oc2ccc(C#N)cc2)ccn1 [Compound E157] |
| 3980 nM | CC(C)C(=O)Nc1ccc(N2CCCC2)cn1 [Compound E081, 2-methyl-N-(5-pyrrolidin-1-yl-2-pyridyl)propanamide] |
| 110 nM | CCN(C[C@@H](O)C(F)(F)F)C(=O)Nc1cnc(Oc2ccc(F)c(F)c2)cn1 [Compound E240] |
| 15.1 nM | CN(C[C@@](C)(O)C(F)(F)F)C(=O)Nc1ccc(Oc2ccc(F)c(F)c2)cn1 [Compound E139, 3-[5-(3,4-difluorophenoxy)-2-pyridyl]-1-methyl-1-[(2R)-3,3,3-trifluoro-2-hydroxy-2-methyl-propyl]urea] |
| 26.9 nM | CCN(C[C@@H](O)C(F)(F)F)C(=O)Nc1cnc(Oc2c(F)cccc2F)cn1 [Compound E244] |
| 263 nM | CN(C[C@@H](O)C(F)(F)F)C(=O)Nc1cc(Oc2ccc(F)c(F)c2)ccn1 [Compound E152] |
| 794 nM | CC(C)C(=O)Nc1ncc(Oc2cccc(F)c2)cc1O [Compound E287, N-[5-(3-fluorophenoxy)-3-hydroxy-2-pyridyl]-2-methyl-propanamide] |
| 6170 nM | O=C(Nc1ccc(Oc2cc(F)cc(F)c2)cn1)N1CC[C@H](CO)C1 [Compound E133] |
| 589 nM | CCN(C[C@@H](O)C(F)(F)F)C(=O)Nc1cnc(Oc2ccc(F)cc2)cn1 [Compound E252] |
| 6310 nM | CC(C)C(=O)Nc1ccc(Br)cn1 [Compound E202] |
| 2510 nM | CC1(C(=O)Nc2ccc(Oc3ccccc3F)cn2)CCOCC1 [Compound E007] |
| 1950 nM | CCN(C[C@@H](O)C(F)(F)F)C(=O)Nc1ccc(Oc2cc(F)ccc2C#N)cn1 [Compound E129] |
| 6310 nM | CN(C)C(=O)Nc1ccc(-c2cc(F)cc(F)c2)cn1 [Compound E193] |

| IC50 | SMILES |
| --- | --- |
| 3.89 nM | CN(C[C@@](C)(O)C(F)(F)F)C(=O)Nc1cnc(Oc2ccc(F)cc2F)cn1 [Compound E253] |
| 13.2 nM | CN(C[C@@H](O)C(F)(F)F)C(=O)Nc1cnc(Oc2ccc(F)cc2F)cn1 [Compound E255] |
| 200 nM | CC1(C)CC(C(=O)Nc2ccc(Oc3ccc(F)c(F)c3)cn2)C1 [Compound E059] |
| 398 nM | CC(C)(C#N)C(=O)Nc1ccc(Oc2cccc(F)c2)cn1 [Compound E001, 2-cyano-N-[5-(3-fluorophenoxy)-2-pyridyl]-2-methyl-propanamide] |
| 0.575 nM | CCN(C[C@@H](O)C(F)(F)F)C(=O)Nc1cc(Oc2cc(F)cc(F)c2)ccn1 [Compound E163, 3-[4-(3,5-difluorophenoxy)-2-pyridyl]-1-ethyl-1-[(2R)-3,3,3-trifluoro-2-hydroxy-propyl]urea] |
| 19.1 nM | CCN(C[C@@H](O)C(F)(F)F)C(=O)Nc1cc(Oc2cncc(F)c2)ccn1 [Compound E162, 1-ethyl-3-[4-[(5-fluoro-3-pyridyl)oxy]-2-pyridyl]-1-[(2R)-3,3,3-trifluoro-2-hydroxy-propyl]urea] |
| 794 nM | CC(C)C(=O)Nc1cc(Oc2ccccc2)ccn1 [Compound E145, 2-methyl-N-(4-phenoxy-2-pyridyl)propanamide] |
| 34.7 nM | CC1(C)CC1C(=O)Nc1cnc(-c2cc(F)ccc2F)cn1 (stereo not drawn) [Compound E226, N-[5-(2,5-difluorophenyl)pyrazin-2-yl]-2,2-dimethyl-cyclopropanecarboxamide] |
| 200 nM | O=C(Nc1ccc(-c2cc(F)cc(F)c2)cn1)C1CC1 [Compound E179] |
| 1910 nM | CC(C)(C#N)CC(=O)Nc1ccc(Oc2ccc(F)c(F)c2)cn1 [Compound E069] |
| 6310 nM | CC(C)NC(=O)Nc1ccc(Oc2ccc(F)c(F)c2)cn1 [Compound E107] |
| 3160 nM | N#C[C@@H]1C[C@@H]1C(=O)Nc1ccc(Oc2ccc(F)c(F)c2)cn1 [Compound E047] |
| 575 nM | O=C(Nc1ccc(Oc2cc(F)cc(F)c2)cn1)N1CCC[C@@H]1CO [Compound E132] |
| 263 nM | CC1(C)OCCC1C(=O)Nc1ccc(Oc2ccc(F)c(F)c2)cn1 (stereo not drawn) [Compound E068] |
| 398 nM | O=C(CC1CC1)Nc1ccc(Oc2ccc(F)c(F)c2)cn1 [Compound E046] |
| 1.62 nM | CCN(C[C@@H](O)C(F)(F)F)C(=O)Nc1cnc(Oc2ccc(F)cc2F)cn1 [Compound E249] |

| SMILES | IC50 |
| --- | --- |
| CN(C)c1ccc(NC(=O)C2C(C)(C)C2(C)C)nc1 [Compound E201, N-[5-(dimethylamino)-2-pyridyl]-2,2,3,3-tetramethyl-cyclopropanecarboxamide] | 162 nM |
| CC1(C)C(C(=O)Nc2cnc(N3CCCC3)cn2)C1(C)C [Compound E233, 2,2,3,3-tetramethyl-N-(5-pyrrolidin-1-ylpyrazin-2-yl)cyclopropanecarboxamide] | 331 nM |
| CC(C)(O)COc1ccc(NC(=O)C2C(C)(C)C2(C)C)nc1 [Compound E080, N-[5-(2-hydroxy-2-methyl-propoxy)-2-pyridyl]-2,2,3,3-tetramethyl-cyclopropanecarboxamide] | 4370 nM |
| CC1(C)C(C(=O)Nc2ccc(Oc3ccnc(C#N)c3)cn2)C1(C)C [Compound E065] | 355 nM |
| CC1(C)C(C(=O)Nc2ccc(Oc3cncc(F)c3)nn2)C1(C)C [Compound E288, N-[6-[(5-fluoro-3-pyridyl)oxy]pyridazin-3-yl]-2,2,3,3-tetramethyl-cyclopropanecarboxamide] | 9120 nM |
| CC1(C)C(C(=O)Nc2ccc(N3CCC(F)(F)C3)cn2)C1(C)C [Compound E100] | 34.7 nM |
| CC1(C)C(C(=O)Nc2cnc(Cl)cn2)C1(C)C [Compound E214] | 100 nM |
| Cn1cc(Oc2ccc(NC(=O)C3C(C)(C)C3(C)C)nc2)cn1 [Compound E073] | 3.63 nM |
| CC1(C)C(C(=O)Nc2ccc(-c3ncon3)cn2)C1(C)C [Compound E271, 2,2,3,3-tetramethyl-N-[5-(1,2,4-oxadiazol-3-yl)-2-pyridyl]cyclopropanecarboxamide] | 31.6 nM |
| CC1(C)C(C(=O)Nc2cc(Oc3ccc(F)nc3)ccn2)C1(C)C [Compound E148, N-[4-[(6-fluoro-3-pyridyl)oxy]-2-pyridyl]-2,2,3,3-tetramethyl-cyclopropanecarboxamide] | 30.2 nM |
| CC1(C)C(C(=O)Nc2cc(N3CCCC3)ccn2)C1(C)C [Compound E146, 2,2,3,3-tetramethyl-N-(4-pyrrolidin-1-yl-2-pyridyl)cyclopropanecarboxamide] | 7940 nM |
| Cn1cc(Oc2cnc(NC(=O)C3C(C)(C)C3(C)C)cn2)cn1 [Compound E221] | 28.8 nM |
| Cn1ncc(-c2ccc(NC(=O)C3C(C)(C)C3(C)C)nc2)n1 [Compound E189, 2,2,3,3-tetramethyl-N-[5-(2-methyltriazol-4-yl)-2-pyridyl]cyclopropanecarboxamide] | 1170 nM |
| CC1(C)C(C(=O)Nc2ccc(I)cn2)C1(C)C [Compound E200, N-(5-iodo-2-pyridyl)-2,2,3,3-tetramethyl-cyclopropanecarboxamide] | 14.8 nM |
| CC1(C)C(C(=O)Nc2ccc(N3CCC(O)C3)cn2)C1(C)C (stereo not drawn) [Compound E070] | 1050 nM |
